What was measured:
Type in all cases: in vivo, rat
[1] = system: NOS; experiment: NOS immunoreactivity in striatum after quinolinic acid induced injury; conditions: adult male Wistar rats, 3 days, FIG. 5
Excerpt: (§1) The objective of this study was to determine the effect of GPE administration on the expression of GAD, NOS and ChAT in the presence or absence of injury to the striatum induced by quinolinic acid. When injected into the striatum in experimental animals quinolinic acid produces lesions arising from the loss of striatopallidal and striatonigral GABAergic projection neurons, but spares the axons in the striatum (Science, 219, 316-318 [1983]). Rats were either treated with a control vehicle or GPE 2 hours after administration of quinolinic acid.
(§2) A total of 14 adult male Wistar rats (280-310 g) were used in this investigation. Eight rats were anaesthetized using halothane/O2 anaesthesia. An injection of quinolinic acid ([…], Sigma, dissolved in 4M NaOH) was stereotaxically placed in the dorsal region of the right striatum 0.8 mm anterior to bregma, 2.5 mm lateral to the midline and 4.0 mm ventral to the pial surface. […]
(§3) The size of the striatal region used for the count was measured using an image analyser (Mocha image analysis software). […] The data has not been analysed for statistical signigicance. Tissue from one of the GPE treated animals was unable to be counted.

[2] = system: GAD; experiment: GAD immunopositive striatal neuron count after hypoxic-ischemic injury; conditions: adult Wistar rats, 3 ug GPE 2 hours after hypoxia, striatum counted 3 days after injury, vs vehicle; *p<0.05; FIG. 2
Description: The objective of these studies was to determine the effects of administering GPE on expression of GAD in the presence or absence of CNS injury. The experiment involved treating the rats with a control vehicle or GPE 2 hours after a focal CNS injury. […] The degree and length of hypoxia, the ambient temperature and humidity were defined to standardise the degree of damage. The neuronal death is restricted to the side of the carotid ligation and is primarily in the hippocampus, dentate gyrus, striatum and lateral cortex of the ligated hemisphere. There is no neuronal loss in the contralateral hemisphere. Specifically, nine pairs of adult wistar rats (280-320 g) were prepared under halothane/O2 anaesthesia. The right side carotid artery was ligated. A guide cannula was placed on the dura 7.5 mm anterior from stereotaxic zero and 1.5 mm from midline on the right. The rats were allowed to recover for 1 hour and were then placed in an incubator with humidity 90+/-5% and temperature 31+/-0.5° C. for 1 hour before hypoxia. Oxygen concentration was reduced and maintained at 6+/-0.202% for 10 minutes. […] The size of the striatal region used for the count was measured using an image analyser. […] Data were analysed with paired t-test and presented as mean +/- sem.

[3] = system: Choline acetyltransferase (ChAT); experiment: ChAT immunopositive striatal neuron count after hypoxic-ischemic injury; conditions: adult Wistar rats, 3 ug GPE centrally via guide cannula 2 hours after hypoxia, striatum counted 3 days after injury, vs vehicle; FIG. 1
Description: (§4) The objective of these studies was to determine the effects of administering GPE on expression of ChAT in the presence or absence of CNS injury. The experiment involved treating the rats with a control vehicle or GPE 2 hours after a focal CNS injury. […] The degree and length of hypoxia, the ambient temperature and humidity were defined to standardise the degree of damage. The neuronal death is restricted to the side of the carotid ligation and is primarily in the hippocarnpus, dentate gyrus, striatum and lateral cortex of the ligated hemisphere. There is no neuronal loss in the contralateral hemisphere.
Specifically, nine pairs of adult wistar rats (280-320g) were prepared under halothane/O2 anaesthesia. The right side carotid artery was ligated. A guide cannula was placed on the dura 7.5 mm anterior from stereotaxic zero and 1.5 mm from midline on the right. The rats were allowed to recover for 1 hour and were then placed in an incubator with humidity 90+/−5% and temperature 31+/−0.5° C. for 1 hour before hypoxia. Oxygen concentration was reduced and maintained at 6+/−0.202% for 10 minutes. […]
(§5) The size of the striatal region used for the count was measured using an image analyser. […] Data were analysed with paired t-test and presented as mean +/− sem.

[4] = system: neuronal nitric oxide synthetase (NOS); experiment: NOS immunopositive striatal neuron count after hypoxic-ischemic injury; conditions: adult Wistar rats, 3 ug GPE 2 hours after hypoxia, striatum counted 3 days after injury, vs vehicle; #p=0.072, *p=0.008; FIG. 3
Description: as §4, with “NOS” for “ChAT”, “hippocampus,” for “hippocarnpus,”
Specifically, nine pairs of adult wistar rats (280-320 g) were prepared under halothane/O2 anaesthesia. The right side carotid artery was ligated. A guide cannula was placed on the dura 7.5 mm anterior from stereotaxic zero and 1.5 mm from midline on the right. The rats were allowed to recover for 1 hour and were then placed in an incubator with humidity 90+/−5% and temperature 31+/−0.5° C. for 1 hour before hypoxia. Oxygen concentration was reduced and maintained at 6+/−0.202% for 10 minutes. […]
as §5

[5] = system: ChAT; experiment: ChAT immunoreactivity in striatum after quinolinic acid induced injury; conditions: adult male Wistar rats, 3 μg GPE into right lateral ventricle 2 hours after quinolinic acid, 3 days; no statistics; FIG. 6
Excerpt: as §1, §2, §3

[6] = system: GAD; experiment: GAD immunoreactivity in striatum after quinolinic acid induced injury; conditions: adult male Wistar rats, 3 μg GPE into right lateral ventricle 2 hours after quinolinic acid, 3 days, vs vehicle; no statistics; FIG. 4
Excerpt: as §1, §2, §3

Gly-Pro-Glu [GPE]
NOS enzyme levels relative to normal, left (non-injured) side ([1]; 3 μg GPE 2 hours after quinolinic acid, compared with normal controls): restoring the enzyme levels to normal | NOS enzyme expression (NOS-positive striatal neurons) ([1]; 3 μg GPE into right lateral ventricle 2 hours after quinolinic acid, vs vehicle, no statistics): upregulation of enzyme expression on both sides of the brain | number of GAD immunopositive neurons [2]: increased in the right side | number of ChAT immunopositive neurons [3]: increased in both the right and left (uninjured) sides | number of NOS immunopositive neurons [4]: increased in both the right and left (uninjured) sides | levels of ChAT (ChAT-positive striatal neurons) [5]: upregulated the levels of ChAT to above normal on the right (injured) side of the brain | GAD expression (GAD-positive striatal neurons) [6]: upregulation of GAD expression on both sides of the brain
